The source of these data is patent US20120197004A1, “NOVEL ANTI-MICROBIAL PEPTIDOMIMETIC COMPOUNDS AND METHODS TO CALCULATE ANTI-MICROBIAL ACTIVITY” (priority 2006, published 2012).

Molecules are shown by their SMILES. Where a SMILES comes first, the peptide text is derived from it. [ ]: non-standard residue; d: D form. Oic = O=C(O)[C@@H]1C[C@@H]2CCCC[C@@H]2N1; Tic = O=C(O)[C@@H]1Cc2ccccc2CN1; GABA = NCCCC(=O)O

The assay has as its system Mycobacterium ranae (ATCC 110). The note with it: in vitro.

`CC(=O)NCCCC(=O)N[C@@H](Cc1ccccc1)C(=O)N1Cc2ccccc2C[C@H]1C(=O)N1[C@H](C(=O)NCCCC(=O)N[C@@H](CCCCN)C(=O)N2Cc3ccccc3C[C@H]2C(=O)N2[C@H](C(=O)NCCCC(=O)N[C@@H](Cc3ccccc3)C(=O)N3Cc4ccccc4C[C@H]3C(=O)N3[C@H](C(=O)NCCCC(=O)N[C@@H](CCCCN)C(=O)N4Cc5ccccc5C[C@H]4C(=O)N[C@@H](CCCCN)C(=O)N[C@@H](CCCCN)C(=O)N[C@@H](CCCCN)C(=O)N[C@@H](CCCCN)C(=O)N[C@@H](CCCCN)C(N)=O)C[C@@H]4CCCC[C@@H]43)C[C@@H]3CCCC[C@@H]32)C[C@@H]2CCCC[C@@H]21` [FKAB-1Gd3, Ac-Gaba-F-Tic-Oic-Gaba-K-Tic-Oic-Gaba-F-Tic-Oic-Gaba-K-Tic-KKKKK-CONH2] (Ac-[GABA]F[Tic][Oic][GABA]K[Tic][Oic][GABA]F[Tic][Oic][GABA]K[Tic]KKKKK-NH2): the “selectivity for Mycobacterium ranae over Staphylococcus aureus ME/GM/TC resistant” value turned out to be 10 fold.
